Data: the METLIN SMRT retention time set (Domingo-Almenara et al. 2019)

Assay: gradient 5% acetonitrile 3 min, to 50% in 2 min, to 85% in 15 min, held 3 min, 100 µL/min
Conditions: column: Zorbax Extend-C18 2.1 x 50 mm; eluents: water / acetonitrile, 0.1% formic acid
In short: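 Data were gathered over 3 months by HPLC coupled to a quadrupole time-of-flight mass spectrometer, operated in positive and negative ionization mode. Mixtures of ~100 pure standards ran on a Zorbax Extend-C18 column (2.1 × 50 mm, 1.8 μm) at 100 μL/min, with water and acetonitrile each containing 0.1% formic acid and dead and dwell volumes of 40 μL and 900 μL. Retention time was read from adduct peaks picked by computer and checked manually.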

RP-LC retention time [s] | Compound
756 | O=C(Cn1cnc2nc3c(cc2c1=O)CCCC3)NCc1cccc(Br)c1
800 | COc1ccc(C(=O)N2CCCC2COc2ccc(C(=O)N3CCCC3)cc2)cc1 (stereo unspecified)
794 | Cc1ccc(NC(=O)N2CCCC2c2nncn2-c2ccccc2)c(Cl)c1 (stereo unspecified)
696 | Cn1nc(C(=O)N2CCCC2)c2c1CCN(C(=O)CCC(=O)NC1CCCCCC1)C2
639 | O=C1NCCCn2cc(S(=O)(=O)Nc3ccc(F)cc3)cc21
723 | COc1ccc(N2CCN(C(=O)C3CCCN(S(=O)(=O)c4cn(C(C)C)cn4)C3)CC2)cc1 (stereo unspecified)
722 | COc1ccc(S(=O)(=O)Nc2ccc3c(c2)N(C(C)=O)CC3)c(C)c1
556 | COc1nccnc1N1CCC(NC(=O)Cc2cccnc2)C1 (stereo unspecified)
874 | CCCN(CC1CCOC1)C(=O)Nc1cc(C)ccc1OC (stereo unspecified)
569 | COC(=O)c1ccc(NC(=O)CN2CCc3[nH]c4c(C)c(Cl)ccc4c(=O)c3C2)cc1
630 | COC(=O)c1ccc(NC(=O)CN2CCc3[nH]c4c(F)c(Cl)ccc4c(=O)c3C2)cc1
684 | COCCNCc1ccc(-c2cc(Cl)ccc2Cl)o1
757 | Cc1ccc(C)c(S(=O)(=O)N2CCC3(CC2)NCCN=C3NCc2ccccc2F)c1
1000 | O=C(CN1C(=O)CCCc2cc(S(=O)(=O)N3CCCCC3)ccc21)Nc1ccc(F)c(Cl)c1
717 | O=C(Nc1nccs1)C1CCN(C(=O)Cc2c(F)cccc2Cl)CC1
989 | C=CCn1c(C)c(CC(=O)Nc2cccc(C)c2)c(=O)n2nc(-c3ccc(C)cc3)nc12
790 | Cc1cc(-c2nnc(C3CC3)o2)c(C)n1CC(=O)NC(C)c1ccccc1 (stereo unspecified)
1050 | CCc1cc(-c2csc(S(=O)(=O)Nc3ccc(C)cc3Br)c2)on1
561 | CCOc1ccc(NC(=O)N2CCc3[nH]cnc3C2c2ccncc2)cc1 (stereo unspecified)
548 | COC(=O)c1ccc(CN2CCN(c3cnn4cnnc4c3)CC2)cc1
612 | CCCNC(=O)NCCc1cn(CC)c2ncccc12
1040 | COC(=O)C(CCSC)NC(=O)c1cc2c(n(-c3ccc(Cl)cc3)c1=O)CC(C)(C)CC2=O (stereo unspecified)

The next lines start with the compound.

Compound | RP-LC retention time [s]
COc1ccc(NC(=O)Cn2cccc2-c2nnc(-c3ccccc3)o2)cc1OC | 850
O=C(NC(c1ccccc1)c1nnc(N2CCCC2)o1)c1cccc(Cl)c1 (stereo unspecified) | 867
CCC(Oc1ccc(=O)n(-c2ccc(F)cc2)n1)C(=O)NCc1ccc2c(c1)OCO2 (stereo unspecified) | 752
Cc1ccc(C(=O)N2[C@H]3CC[C@@H]2c2cnc(-c4ccccc4)nc2C3)cn1 | 689
COc1ccc(OC)c(C(O)CN2CCN(c3ccccc3F)CC2)c1 (stereo unspecified) | 677
COc1cc(OC)c(-n2nnc(-c3nsc(Nc4ccc(OC)c(OC)c4)n3)c2C)cc1Cl | 928
Cc1cccc(-c2nc3nc(C)cc(Nc4cccc5nsnc45)n3n2)c1 | 984
Cc1noc(-c2nn(C)c3c2CN(C(=O)COc2ccc(F)cc2)CC3)n1 | 740
CN1C(=O)c2ccccc2Oc2ccc(C(=O)N3CCOCC3)cc21 | 675
CCn1cc(CCNC(=O)Nc2ccccc2)c2cccnc21 | 693
Cc1ccc(-n2nc(N3CCN(C(=O)c4ccc(Br)o4)CC3)ccc2=O)cc1C | 875
Cc1cccc(NC(=O)N2CCC(n3cnc4c(C)cccc4c3=O)CC2)c1 | 836
COc1ccc(-c2cn3c(CCC(=O)NCc4ccco4)csc3n2)cc1 | 637
O=C(CSc1nncc2ccccc12)NCCc1ccccc1 | 687
CCOC(=O)c1noc2nc(C)nc(NCC3CCN(Cc4ccc(C)cc4)CC3)c12 | 705
CCNC(=O)N1CCOc2cc(C)ccc21 | 768
CC(C)n1c(=O)oc2cc(-c3noc(-c4cccc(Cl)c4)n3)ccc21 | 1180
CC1CCc2nc3ncn(CC(=O)NCCc4ccc(Cl)cc4)c(=O)c3cc2C1 (stereo unspecified) | 756
CCn1nccc1-c1cccc(-c2noc(-c3ccc(OC)cc3)n2)c1 | 1210
Fc1cccc(CN2CC[C@@H]3CN(Cc4ccccc4)[C@@H]3C2)c1 | 624
O=C(NC1CCN(c2cc(-c3ccc(Cl)cc3)[nH]n2)C1)c1ccc(F)c(F)c1 (stereo unspecified) | 839
CCn1c(=O)c2ccccc2n(Cc2nc(-c3ccc(C)cc3)no2)c1=O | 1070

Compound | RP-LC retention time [s]
O=C(NCC(O)C1CCCCC1)C(c1ccccc1)c1ccccc1 (stereo unspecified) | 907
COc1cccc(-c2nc(N3CCSCC3)ncc2C(=O)O)c1 | 857
CCc1ccc(C2=C(C)C(N3CCCN(C(=O)c4ccccc4)CC3)=NS2(=O)=O)cc1 | 896
CCc1cccc(C)c1NC(=O)C1Cc2cc(S(=O)(=O)N3CCCCC3)ccc2N1C(C)=O (stereo unspecified) | 900
CC1(C)SC2C(NC(=O)COc3ccccc3)C(=O)N2C1C(=O)O (stereo unspecified) | 821
COc1ccc(-c2nc3cccnc3n2C2CCN(S(=O)(=O)c3ccccc3)C2)cc1 (stereo unspecified) | 778
COc1cccc(-c2ccc(=O)n(CCc3nc(-c4cccc(F)c4)no3)n2)c1 | 970
Cc1cc(C)c(S(=O)(=O)N2CCCC2c2nc(-c3ccc(Cl)cc3)no2)cc1C (stereo unspecified) | 1340
CCC(=O)N1CCC(N2CC(OCC3CC3)C23CCOCC3)CC1 (stereo unspecified) | 577
CC(=O)Nc1ccc2c(c1)CN(C(=O)c1ccccc1F)C(C(=O)N1CCCC1)C2 (stereo unspecified) | 646
CCc1nc(-c2ccc(C(=O)N3CCN(c4ncccn4)CC3)cc2)cs1 | 843
O=C(CN1CCOCC1)N1CC(c2nc(CCOCC3CC3)no2)C1 | 577
COC(=O)c1ccc(NC(=O)C2=Cc3cc(OC)ccc3OC=C2)cc1 | 1040
COCCN1CCC(N2CCN(C(=O)c3ccsc3)CC2)C1=O (stereo unspecified) | 515
CCn1cc(C(=O)Nc2ccc(F)c(C)c2)c(S(=O)(=O)N2CCSCC2)n1 | 1040
COc1ccc(CNC(=O)CN2C(=O)C3CCCCN3c3ccc(S(=O)(=O)N(C)C)cc32)cc1 (stereo unspecified) | 887
CCc1noc(NC(C)=O)c1-c1ccc(C)c(S(=O)(=O)Nc2ccc(OC)cc2OC)c1 | 794
Cc1ccccc1NC(=O)N1CCCC1c1nc(-c2ccc(F)cc2F)no1 (stereo unspecified) | 932
COc1ccc(NC(=O)c2cnc3c(c2)c(=O)n(C)c(=O)n3-c2ccc(F)cc2)cc1 | 856
Cc1cccc(CN2N=C(C(=O)N3CCOCC3)S(=O)(=O)c3ccc(C)cc32)c1 | 835
COc1ccc(NC2=NS(=O)(=O)C(c3ccccc3)=C2C)c(OC)c1 | 910
CC(=O)N1CCc2cc(-c3ccc(C(=O)NCCCN4CCCCC4)cc3)ccc21 | 616
